Source: patent US7829568B2, “Substituted 5,6,7,8-tetrahydroimidazo[1,2-a]pyridin-2-ylamine compounds and their use for producing drugs” (Gruenenthal GmbH, priority 2005, dated 2010)

System: batrachotoxin (BTX) binding site of the sodium channel
Test: Affinity to the batrachotoxin (BTX) binding site of the sodium channel
Set-up: species or system rat
Conditions: [3H]-batrachotoxinin A20 α-benzoate 10 nM; synaptosomes from rat cerebral cortex; test concentration not given

Structure (SMILES)	BTX inhibition (rat) (% inhibition) [%]
CN(C(=O)c1cccc2ccccc12)c1nc2n(c1C(=O)N(C)C1CCN(Cc3ccc(-c4ccccc4)cc3)C1)CCCC2 (stereo not shown) [Example 76, 2-[methyl-(naphthalene-1-carbonyl)-amino]-5,6,7,8-tetrahydro-imidazo[1,2-a]pyridine-3-carboxylic acid (1-biphenyl-4-ylmethyl-pyrrolidin-3-yl)-methyl-amide]	95
CCCCN(C(=O)c1cccc(Cl)c1)c1nc2n(c1C(=O)N[C@H](C(=O)OCc1ccccc1)C(C)C)CCCC2 [Example 91]	48
CN(C(=O)Cc1ccccc1)c1nc2n(c1C(=O)N1CCN(CCCc3ccccc3)CC1)CCCC2 [Example 176, N-methyl-2-phenyl-N-{3-[4-(3-phenyl-propyl)-piperazine-1-carbonyl]-5,6,7,8-tetrahydro-imidazo[1,2-a]pyridin-2-yl}-acetamide]	71
CCCCN(C(=O)c1ccc(F)c(F)c1)c1nc2n(c1C(=O)NCc1ccccc1OC(F)(F)F)CCCC2 [Example 88, 2-[butyl-(3,4-difluoro-benzoyl)-amino]-5,6,7,8-tetrahydro-imidazo[1,2-a]pyridine-3-carboxylic acid 2-trifluoromethoxy-benzylamide]	31
CN(C(=O)c1cccc2ccccc12)c1nc2n(c1C(=O)NCc1cc(C(F)(F)F)cc(C(F)(F)F)c1)CCCC2 [Example 15, 2-[Methyl-(naphthalene-1-carbonyl)-amino]-5,6,7,8-tetrahydro-imidazo[1,2-a]pyridine-3-carboxylic acid 3,5-bis-trifluoromethyl-benzylamide]	68
CCCCN(C(=O)c1ccc(F)c(F)c1)c1nc2n(c1C(=O)N1CCN(c3ccc(C(F)(F)F)cn3)CC1)CCCC2 [Example 187, N-butyl-3,4-difluoro-N-{3-[4-(5-trifluoromethyl-pyridin-2-yl)-piperazine-1-carbonyl]-5,6,7,8-tetrahydro-imidazo[1,2-a]pyridin-2-yl}-benzamide]	41
CCCCN(C(=O)c1cccc(Cl)c1)c1nc2n(c1C(=O)N1CCN(Cc3ccc(Cl)cc3)CC1)CCCC2 [Example 140, N-butyl-3-chloro-N-{3-[4-(4-chloro-benzyl)-piperazine-1-carbonyl]-5,6,7,8-tetrahydro-imidazo[1,2-a]pyridin-2-yl}-benzamide]	81
CCCCN(C(=O)c1cccc(Cl)c1)c1nc2n(c1C(=O)NCc1cccc(C)c1)CCCC2 [Example 113, 2-[butyl-(3-chloro-benzoyl)-amino]-5,6,7,8-tetrahydro-imidazo[1,2-a]pyridine-3-carboxylic acid 3-methyl-benzylamide]	31
CCCCN(C(=O)c1cccc(Cl)c1)c1nc2n(c1C(=O)N1CCN(c3cccc(C(F)(F)F)c3)CC1)CCCC2 [Example 79, N-butyl-3-chloro-N-{3-[4-(3-trifluoromethyl-phenyl)-piperazine-1-carbonyl]-5,6,7,8-tetrahydro-imidazo[1,2-a]pyridin-2-yl}-benzamide]	83
CCCCN(C(=O)c1cccc(Cl)c1)c1nc2n(c1C(=O)NC1CCCCC1)CCCC2 [Example 120, 2-[butyl-(3-chloro-benzoyl)-amino]-5,6,7,8-tetrahydro-imidazo[1,2-a]pyridine-3-carboxylic acid cyclohexylamide]	61
CCCCN(C(=O)c1cccc(Cl)c1)c1nc2n(c1C(=O)NCc1ccc(OC(F)(F)F)cc1)CCCC2 [Example 127, 2-[butyl-(3-chloro-benzoyl)-amino]-5,6,7,8-tetrahydro-imidazo[1,2-a]pyridine-3-carboxylic acid 4-trifluoromethoxy-benzylamide]	60
CCCCN(C(=O)c1cccc(Cl)c1)c1nc2n(c1C(=O)NC1CCN(Cc3cc(OC)c(OC)cc3Br)C1)CCCC2 (stereo not shown) [Example 172, 2-[butyl-(3-chloro-benzoyl)-amino]-5,6,7,8-tetrahydro-imidazo[1,2-a]pyridine-3-carboxylic acid [1-(2-bromo-4,5-dimethoxy-benzyl)-pyrrolidin-3-yl]-amide]	96
CN(C(=O)c1cccc2ccccc12)c1nc2n(c1C(=O)NC1CCN(Cc3ccc(C(F)(F)F)cc3)C1)CCCC2 (stereo not shown) [Example 30, 2-[methyl-(naphthalene-1-carbonyl)-amino]-5,6,7,8-tetrahydro-imidazo[1,2-a]pyridine-3-carboxylic acid [1-(4-trifluoromethyl-benzyl)-pyrrolidin-3-yl]-amide]	85
CCCCN(C(=O)c1cccc(Cl)c1)c1nc2n(c1C(=O)NCc1ccccc1OCC)CCCC2 [Example 43, 2-[butyl-(3-chloro-benzoyl)-amino]-5,6,7,8-tetrahydro-imidazo[1,2-a]pyridine-3-carboxylic acid 2-ethoxy-benzylamide]	40
CN(C(=O)c1cccc2ccccc12)c1nc2n(c1C(=O)NCc1ccccc1OC(F)(F)F)CCCC2 [Example 99, 2-[methyl-(naphthalene-1-carbonyl)-amino]-5,6,7,8-tetrahydro-imidazo[1,2-a]pyridine-3-carboxylic acid 2-trifluoromethoxy-benzylamide]	33
CCCCN(C(=O)c1cccc(Cl)c1)c1nc2n(c1C(=O)NCc1ccc(F)cc1F)CCCC2 [Example 47, 2-[butyl-(3-chloro-benzoyl)-amino]-5,6,7,8-tetrahydro-imidazo[1,2-a]pyridine-3-carboxylic acid 2,4-difluoro-benzylamide]	44
CCCCN(C(=O)c1cccc(Cl)c1)c1nc2n(c1C(=O)NCCSCc1c(Cl)cccc1Cl)CCCC2 [Example 95, 2-[butyl-(3-chloro-benzoyl)-amino]-5,6,7,8-tetrahydro-imidazo[1,2-a]pyridine-3-carboxylic acid [2-(2,6-dichlor-benzylsulphanyl)-ethyl]-amide]	68
CCCCN(C(=O)c1cccc(Cl)c1)c1nc2n(c1C(=O)NCCCn1ccnc1)CCCC2 [Example 9, 2-[butyl-(3-chloro-benzoyl)-amino]-5,6,7,8-tetrahydro-imidazo[1,2-a]pyridine-3-carboxylic acid (3-imidazol-1-yl-propyl)-amide]	36
CCCCN(C(=O)c1cccc(Cl)c1)c1nc2n(c1C(=O)NCCc1cc(OC)ccc1OC)CCCC2 [Example 2, 2-[butyl-(3-chloro-benzoyl)-amino]-5,6,7,8-tetrahydro-imidazo[1,2-a]pyridine-3-carboxylic acid [2-(2,5-dimethoxy-phenyl)-ethyl]-amide]	59
CN(C(=O)Cc1ccccc1)c1nc2n(c1C(=O)N(C)C1CCN(Cc3ccc(-c4ccccc4)cc3)C1)CCCC2 (stereo not shown) [Example 168, 2-(methyl-phenylacetyl-amino)-5,6,7,8-tetrahydro-imidazo[1,2-a]pyridine-3-carboxylic acid (1-biphenyl-4-ylmethyl-pyrrolidin-3-yl)-methyl-amide]	92
CCCCN(C(=O)c1cccc(Cl)c1)c1nc2n(c1C(=O)NC(COC)Cc1ccccc1)CCCC2 (stereo not shown) [Example 86, 2-[butyl-(3-chloro-benzoyl)-amino]-5,6,7,8-tetrahydro-imidazo[1,2-a]pyridine-3-carboxylic acid (1-methoxymethyl-2-phenyl-ethyl)-amide]	42
CCCCN(C(=O)c1cccc(Cl)c1)c1nc2n(c1C(=O)Nc1ccc(C(C)(C)C)cc1)CCCC2 [Example 152, 2-[butyl-(3-chloro-benzoyl)-amino]-5,6,7,8-tetrahydro-imidazo[1,2-a]pyridine-3-carboxylic acid (4-tert-butyl-phenyl)-amide]	92
CCCCN(C(=O)c1ccc(F)c(F)c1)c1nc2n(c1C(=O)N1CCN(c3ccccc3Cl)CC1)CCCC2 [Example 178, N-butyl-N-{3-[4-(2-chloro-phenyl)-piperazine-1-carbonyl]-5,6,7,8-tetrahydro-imidazo[1,2-a]pyridin-2-yl}-3,4-difluoro-benzamide]	79
CN(C(=O)c1cccc2ccccc12)c1nc2n(c1C(=O)N1CCN(CCc3ccccc3)CC1)CCCC2 [Example 174, naphthalene-1-carboxylic acid methyl-[3-(4-phenethyl-piperazine-1-carbonyl)-5,6,7,8-tetrahydro-imidazo[1,2-a]pyridin-2-yl]-amide]	47
CN(C(=O)c1cccc(Cl)c1)c1nc2n(c1C(=O)N1CCN(Cc3ccc4ccccc4n3)CC1)CCCC2 [Example 53, 3-chloro-N-methyl-N-[3-(4-quinolin-2-ylmethyl-piperazine-1-carbonyl)-5,6,7,8-tetrahydro-imidazo[1,2-a]pyridin-2-yl]-benzamide]	64
CN(C(=O)c1cccc2ccccc12)c1nc2n(c1C(=O)NCC(c1ccccc1)c1ccccc1)CCCC2 [Example 46, 2-[methyl-(naphthalene-1-carbonyl)-amino]-5,6,7,8-tetrahydro-imidazo[1,2-a]pyridine-3-carboxylic acid (2,2-diphenyl-ethyl)-amide]	67
CC(C)CC(NC(=O)c1c(N(C)C(=O)c2cccc3ccccc23)nc2n1CCCC2)C(=O)OCc1ccccc1 (stereo not shown) [Example 57, 4-methyl-2-({2-[methyl-(naphthalene-1-carbonyl)-amino]-5,6,7,8-tetrahydro-imidazo[1,2-a]pyridine-3-carbonyl}-amino)-pentanoic acid benzyl ester]	31
CN(C(=O)c1cccc(Cl)c1)c1nc2n(c1C(=O)N1CCC(O)(c3cccc(C(F)(F)F)c3)CC1)CCCC2 [Example 81, 3-chloro-N-{3-[4-hydroxy-4-(3-trifluoromethyl-phenyl)-piperidine-1-carbonyl]-5,6,7,8-tetrahydro-imidazo[1,2-a]pyridin-2-yl}-N-methyl-benzamide]	33
